Laboratory results published in PubChem BioAssay (NCI).
Several values for one entry are separate records, joined by “and”; a condition that tells them apart may be missing. Identical values can stand only once.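 Briefly, cells in 96-well plates were exposed to five compound concentrations for 48 h, and endpoints were estimated by linear interpolation. Here, GI50 denotes the concentration required for 50% inhibition of growth. Definition used: TGI = concentration required for complete inhibition of growth.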

Columns and labels:
Assay in all cases: NCI tumour cell line growth inhibition, 48 h
[1] = system: OVCAR-8 ovarian
[2] = system: UACC-257 melanoma
[3] = system: OVCAR-3 ovarian
[4] = system: SF-539 CNS
[5] = system: SK-MEL-5 melanoma
[6] = system: TK-10 renal
[7] = system: SNB-19 CNS
[8] = system: SR leukemia
[9] = system: HL-60(TB) leukemia
[10] = system: DU-145 prostate

| Compound | TGI [1] [µM] | TGI [2] [µM] | TGI [3] [µM] | TGI [4] [µM] | TGI [5] [µM] | TGI [6] [µM] | TGI [7] [µM] | TGI [8] [µM] | TGI [9] | GI50 [9] | GI50 [3] [µM] | GI50 [4] [µM] | GI50 [6] [µM] | GI50 [7] [µM] | GI50 [8] [µM] | GI50 [10] [µM] | TGI [10] | GI50 [1] | GI50 [2] [µM] | GI50 [5] |
| --- | --- | --- | --- | --- | --- | --- | --- | --- | --- | --- | --- | --- | --- | --- | --- | --- | --- | --- | --- | --- |
| COc1ccc(-c2cc(-c3ccco3)c(C#N)c(=O)n2C2OC(OC(=O)c3ccccc3)C(OC(=O)c3ccccc3)C2OC(=O)c2ccccc2)cc1 (stereo unspecified) | > 100 | > 100 | > 100 | > 100 | > 100 | 54.7 | > 100 | > 100 | – | – | – | – | – | – | – | – | – | – | – | – |
| Cc1cccc2c1NC(c1c(C)[nH]c3ccccc13)C2 (stereo unspecified) | > 100 | > 100 | > 100 | > 100 | > 100 | > 100 | > 100 | > 100 | > 100 µM | – | – | – | – | – | – | – | – | – | – | – |
| Nc1ccc(Cl)cc1.Nc1ccc(Cl)cc1.Nc1ccc(Cl)cc1.O=C([O-])C(=O)[O-].O=C([O-])C(=O)[O-].[H+].[Ru+5] | > 100 | > 100 | > 100 | > 100 | > 100 | > 100 | > 100 | > 100 | > 87.8 µM | 0.104 µM | 1.1 | 0.352 | 3.56 | 31.4 | 0.023 | – | – | – | – | – |
| Cc1cc(C)c(-c2noc(-c3ccc(Cl)cc3)c2C2=NCCN2)c(C)c1 | – | 34 | 44.7 | 32 | 24 | – | > 100 | 48 | 46.4 µM | – | – | – | – | – | – | – | – | – | – | – |
| O=C1/C=C(/c2ccc(O)cc2)[C@H](O)Cc2ccc(OC3OC(CO)C(O)C(O)C3O)cc2O1 (stereo partly specified) (tested in a mixture with another compound) | > 100 | > 100 | > 100 | > 100 | > 100 | > 100 | > 100 | – | > 100 µM | – | – | – | – | – | – | – | – | – | – | – |
| O=C1c2cc(Br)ccc2-c2c1c1ccccc1c(=O)n2CCCCl | 65.8 | 95.7 | 7.91 | 68.5 | 77.7 | – | > 100 | – | – | – | 0.964 | 25.1 | – | 72.2 | – | 64.7 | > 100 µM | 15.9 µM | 17.7 | 14.4 µM |
| COc1ncn(C2C=C(CO)C(O)C2O)c(=O)n1 (stereo unspecified) | > 100 | > 100 | > 100 | > 100 | > 100 | > 100 | – | – | > 100 µM | – | – | – | – | – | – | – | – | – | – | – |
| O=C(O)C(=O)/C=C\c1ccc(Cl)cc1 | > 100 | > 100 | > 100 | > 100 | > 100 | > 100 | > 100 | > 100 | > 100 µM | – | – | – | – | – | – | – | – | – | – | – |
| O=C(c1ccc(Cl)cc1)N(C(=S)N1CCN(c2ccccc2)CC1)C1CCCCC1 | > 100 | > 100 | > 100 | > 100 | > 100 | > 100 | > 100 | > 100 | > 100 µM | – | – | – | – | – | – | – | – | – | – | – |
| c1cc(C2O[C@H]3CCCN3[C@@H]2c2ccncc2)ccn1 (stereo partly specified) | > 100 | > 100 | > 100 | > 100 | > 100 | > 100 | > 100 | – | – | – | – | – | – | – | – | – | – | – | – | – |
| Nc1ncnc2c1ncn2C1OC(CO)C(O)C1O (stereo unspecified) | > 401 | > 450 | – | > 450 | > 450 | > 100 | > 450 | – | > 100 µM and 328 µM and 56 µM | 22.9 µM and 105 µM and 13.8 µM | – | 31.6 | 41.1 | – | – | 3.8 | 82.4 µM and 31.4 µM | 32.9 µM and 79.3 µM and 12.6 µM | > 450 | > 100 µM and > 450 µM and 46.2 µM |
| CCCCc1c2c(nc3c1CCc1cc(C=O)c(N)nc1-3)/C(=C/c1ccccc1)CCC2 | > 100 | > 100 | > 100 | > 100 | > 100 | > 100 | > 100 | > 100 | > 100 µM | – | – | – | – | – | – | – | – | – | – | – |
| COC(=O)CC[C@@H](NC(=O)C(C)NC(=O)COC1C(O)C(COC(=O)CCCCCCCCCCNC(=O)c2ccc([N+](=O)[O-])c3[nH]c4cc(Br)ccc4c(=O)c23)OC(OCc2ccccc2)C1NC(C)=O)C(N)=O (stereo partly specified) | > 100 | > 100 | > 100 | > 100 | > 100 | > 100 | > 100 | > 100 | 51.4 µM | – | – | – | – | – | – | – | – | – | – | – |
| O=C(CCCCCCCCC(=O)OCCCn1cc(C(=O)NC(=O)OCc2ccccc2)c(=O)[nH]c1=O)OCCCn1cc(C(=O)NC(=O)OCc2ccccc2)c(=O)[nH]c1=O | > 100 | > 100 | > 100 | > 100 | > 100 | > 100 | > 100 | – | > 100 µM | – | – | – | – | – | – | – | – | – | – | – |
| CCOc1cccc2cccnc12 | > 100 | > 100 | > 100 | > 100 | > 100 | > 100 | > 100 | – | > 100 µM | – | – | – | – | – | – | – | – | – | – | – |
| CC1=NN(C(=O)CC(=O)Nc2ccccc2)C(=O)C1N=Nc1ccc(S(N)(=O)=O)cc1 (stereo unspecified) | > 100 | > 100 | > 100 | > 100 | > 100 | > 100 | > 100 | > 100 | > 100 µM | – | – | – | – | – | – | – | – | – | – | – |
| CCOC(=O)C(=C=Cc1cccs1)C(=O)c1ccccc1 | 29.3 | 25.5 | – | 30.6 | 10.5 | 28.5 | – | 49 | 80.9 µM | – | – | – | – | – | – | – | – | – | – | – |
| COc1cc(C=C2C(=O)OC(C)(C)OC2=O)cc(OC)c1OC | > 100 | > 100 | > 100 | > 100 | > 100 | > 100 | > 100 | > 100 | > 100 µM | – | – | – | – | – | – | – | – | – | – | – |
| CCCCC#Cc1c(I)n(C2OC(CO[Si](C)(C)C(C)(C)C)C3OC(C)(C)OC32)c(=O)[nH]c1=O (stereo unspecified) | 15.9 | 15.5 | 2.86 | – | – | 16.8 | – | – | 4.14 µM | 1.52 µM | 1.53 | – | 4.32 | – | – | 3.48 | 12.9 µM | 3.73 µM | 3.1 | – |
| CC(=O)OC1CC[C@@]2(C)C(CC(OC3OC(CO)C(O)C(O)C3O)[C@]3(C)C2CCC24CC23CC[C@H]4C(C)CC(O)[C@@H](O)C(C)(C)O)C1(C)C (stereo partly specified) | > 50 | 24.4 | 48.7 | 19.1 | 15.9 | > 50 | 38.3 | – | 24.9 µM | – | – | – | – | – | – | – | – | – | – | – |
| COC1=C(C(=O)OC(C)(C)C)C23CCCCC2(C(C(=O)OC(C)(C)C)=C(OC)C3C(=O)OC(C)(C)C)C1C(=O)OC(C)(C)C (stereo unspecified) | > 100 | > 100 | > 100 | > 100 | 36 | > 100 | > 100 | > 100 | 63.1 µM | – | – | – | – | – | – | – | – | – | – | – |
